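How tested: cells in 96-well plates exposed to compound for 48 hours at five concentrations. TGI: total growth inhibition.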
Tests used:
Assay in all cases: inhibition of tumour cell growth, NCI panel, 48 h
[1] = tested on: HOP-62 NSCLC
[2] = tested on: U251 CNS
[3] = tested on: MOLT-4 leukemia
[4] = tested on: IGROV1 ovarian
[5] = tested on: HCC-2998 colon
[6] = tested on: SK-MEL-2 melanoma
[7] = tested on: OVCAR-5 ovarian
[8] = tested on: RPMI-8226 leukemia
[9] = tested on: SK-MEL-5 melanoma
[10] = tested on: SN12C renal
[11] = tested on: NCI-H460 lung
[12] = tested on: LOX IMVI melanoma
[13] = tested on: EKVX NSCLC
[14] = tested on: UO-31 renal
[15] = tested on: SF-295 CNS
[16] = tested on: ACHN renal
[17] = tested on: COLO 205 colon
[18] = tested on: NCI/ADR-RES ovarian
[19] = tested on: MDA-MB-231 breast
[20] = tested on: SR leukemia
[21] = tested on: HT29 colon
[22] = tested on: DU-145 prostate
[23] = tested on: SK-OV-3 ovarian
[24] = tested on: HCT-116 colon
[25] = tested on: TK-10 renal
[26] = tested on: HL-60(TB) leukemia
[27] = tested on: MCF7 breast
[28] = tested on: SNB-19 CNS
[29] = tested on: OVCAR-3 ovarian
[30] = tested on: HS 578T breast
[31] = tested on: SW-620 colon
[32] = tested on: SF-268 CNS
[33] = tested on: 786-0 renal
[34] = tested on: CCRF-CEM leukemia
[35] = tested on: T-47D breast
[36] = tested on: SK-MEL-28 melanoma
[37] = tested on: MALME-3M melanoma
[38] = tested on: MDA-N
[39] = tested on: M14 melanoma
[40] = tested on: A549 NSCLC
[41] = tested on: SF-539 CNS
[42] = tested on: HCT-15 colon
[43] = tested on: MDA-MB-435
[44] = tested on: NCI-H23 lung
[45] = tested on: OVCAR-4 ovarian
[46] = tested on: SNB-75 CNS
[47] = tested on: BT-549 breast
[48] = tested on: RXF 393 renal
[49] = tested on: UACC-62 melanoma
[50] = tested on: PC-3 prostate
[51] = tested on: OVCAR-8 ovarian
[52] = tested on: K-562 leukemia
[53] = tested on: NCI-H522 lung
[54] = tested on: KM12 colon
[55] = tested on: UACC-257 melanoma
[56] = tested on: CAKI-1 renal
[57] = tested on: A498 renal
[58] = tested on: HOP-92 NSCLC
[59] = tested on: NCI-H226 lung

Measured: TGI

N#CC(c1ccccc1)(c1ccccc1)[C@@H](c1ccccc1)[C@H](Cc1ccccc1)NS(=O)(=O)c1ccccc1
> 100 µM: [1] | [2] | [3] | [4] | [5] | [6] | [7] | [8] | [9] | [10] | [11] | [12] | [13] | [14] | [15] | [16] | [17] | [18] | [19] | [20] | [21] | [22] | [23] | [24] | [25] | [26] | [27] | [28] | [29] | [30] | [31] | [32] | [33] | [34] | [35] | [36] | [37] | [38] | [39] | [40] | [41] | [42] | [43] | [44] | [45] | [46] | [47] | [48] | [49] | [50] | [51] | [52] | [53] | [54] | [55] | [56] | [57]

C=CCC1=CC2(OC)C(=O)C(OC)(OC)C1C1C(OC)(OC)C(=O)C(OC)=CC12CC=C (stereo not drawn)
> 100 µM: [1] | [2] | [3] | [4] | [5] | [6] | [7] | [8] | [9] | [10] | [11] | [12] | [13] | [14] | [15] | [16] | [17] | [18] | [19] | [21] | [22] | [23] | [24] | [25] | [26] | [27] | [28] | [29] | [30] | [31] | [32] | [33] | [34] | [35] | [36] | [37] | [38] | [39] | [40] | [41] | [42] | [43] | [44] | [58] | [45] | [46] | [47] | [48] | [49] | [50] | [51] | [52] | [53] | [54] | [55] | [56] | [57]

CC1OC(OC2C(O[C@@H]3C[C@@H]4CC[C@@H]5[C@H](CC[C@]6(C)[C@@H]7[C@H](C[C@@H]56)O[C@]5(CC[C@@H](C)CO5)[C@H]7C)[C@@]4(C)C[C@H]3O)OC(CO)C(OC3OC(CO)C(O)C(O)C3O)C2O)C(O)C(O)C1O (stereo partly drawn)
3.37 µM: [38]
2.91 µM: [13]
5.76 µM: [46]
4.12 µM: [44]
3.18 µM: [16]
2.85 µM: [50]
3.72 µM: [34]
3.25 µM: [59]
3.3 µM: [55]
3.12 µM: [7] | [17]
3.81 µM: [14]
3.35 µM: [56]
3.28 µM: [6]
3.66 µM: [28]
2.9 µM: [51]
3.07 µM: [39]
2.88 µM: [21]
4.76 µM: [45]
11.3 µM: [8]
2.39 µM: [4]
3.62 µM: [49]
3.13 µM: [36]
2.57 µM: [37]
3.17 µM: [23]
11.2 µM: [35]
3.39 µM: [19]
5.16 µM: [58]
3.83 µM: [26]
3.51 µM: [32]
4.49 µM: [54]
4.14 µM: [11]
2.4 µM: [53]
3.65 µM: [27]
4.38 µM: [30]
58.1 µM: [52]
3.16 µM: [41] | [43]
3.02 µM: [40]
4.29 µM: [22]
3.1 µM: [57]
3.04 µM: [29] | [31]
3.67 µM: [3]
3.22 µM: [1]
3.32 µM: [33]
3.88 µM: [18]
13.1 µM: [24]
4.44 µM: [47]
2.92 µM: [15]
3.53 µM: [48]
3.2 µM: [2]
4.66 µM: [42]
3.05 µM: [10]
2.89 µM: [9]

O=C(NNC(=O)c1ccccc1Cl)c1ccccc1O
99.2 µM: [53]
77.1 µM: [59]
> 100 µM: [1] | [2] | [3] | [4] | [6] | [7] | [8] | [9] | [10] | [11] | [12] | [13] | [14] | [15] | [17] | [18] | [19] | [20] | [21] | [22] | [23] | [24] | [25] | [27] | [28] | [29] | [30] | [31] | [32] | [33] | [34] | [35] | [36] | [37] | [38] | [39] | [40] | [41] | [42] | [43] | [45] | [46] | [47] | [48] | [49] | [50] | [51] | [52] | [54] | [55] | [56] | [57]
